From patent US20240158446A1, “CYCLIC COMPOUND HAVING SELECTIVE INHIBITORY ACTION ON KRAS OVER HRAS AND NRAS” (CHUGAI SEIYAKU KABUSHIKI KAISHA, priority 2021, published 2024)
Read-outs that look alike come from different tables or passages of the source. Where a SMILES comes first, the peptide text is derived from it. Bridges are numbered along the chain shown (N, C = ends). [ ]: non-standard residue; d: D form. The star is where a group is joined. hPhe(3-Cl-4-CF3) = N[C@@H](CCc1ccc(C(F)(F)F)c(Cl)c1)C(=O)O; NPrPhe(4-CF3) = CCCN[C@@H](Cc1ccc(C(F)(F)F)cc1)C(=O)O; NMeGly(cPent) = CN[C@H](C(=O)O)C1CCCC1; NMeD = CN[C@@H](CC(=O)O)C(=O)O; NMeL = CN[C@@H](CC(C)C)C(=O)O; Morpholide = C1CN(*)CCO1; Ac4c = NC1(C(=O)O)CCC1; NEtG = CCNCC(=O)O; Sar = CNCC(=O)O

Columns and labels:
[1] = molecular target: GDP-bound HRAS wild-type protein (Homo sapiens, UniProt P01112); assay: Binding to HRAS by surface plasmon resonance (SPR), Single Cycle Kinetics; conditions: for HRAS/KRAS (ratio of KD value for HRAS to KD value for KRAS): GDP-bound HRAS wild-type protein vs GDP-bound KRAS wild-type protein; for HRAS/KRAS (ratio of KD value with respect to GDP-bound HRAS wild-type protein to KD value with respect to KRAS): SPR KD ratio HRAS/KRAS, class symbols
[2] = molecular target: GDP-bound KRAS wild-type protein (Homo sapiens, UniProt P01116); assay: Binding to KRAS by surface plasmon resonance (SPR), Single Cycle Kinetics; conditions: GDP-bound KRAS wild-type protein, read-out: KRAS KD
[3] = system: human lung cancer strain NCI-H441;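 further: cell proliferation inhibition after four days measured by CellTiter-Glo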
[4] = molecular target: GDP-bound NRAS wild-type protein (Homo sapiens, UniProt P01111); assay: Binding to NRAS by surface plasmon resonance (SPR), Single Cycle Kinetics; conditions: for NRAS/KRAS (ratio of KD value for NRAS to KD value for KRAS): GDP-bound NRAS wild-type protein vs GDP-bound KRAS wild-type protein; for NRAS/KRAS (ratio of KD value with respect to GDP-bound NRAS wild-type protein to KD value with respect to KRAS): SPR KD ratio NRAS/KRAS, class symbols
[5] = SPR, Single Cycle Kinetics, 1:1 binding model
[6] = SPR Single Cycle Kinetics, 1:1 binding model

Sequence of GDP-bound NRAS wild-type protein (P01111 whole entry): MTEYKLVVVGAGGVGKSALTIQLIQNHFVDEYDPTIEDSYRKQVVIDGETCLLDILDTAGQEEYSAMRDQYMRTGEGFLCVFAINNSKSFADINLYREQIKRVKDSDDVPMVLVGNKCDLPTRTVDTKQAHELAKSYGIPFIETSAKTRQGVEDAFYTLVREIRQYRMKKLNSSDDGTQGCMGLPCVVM
Sequence of GDP-bound HRAS wild-type protein (P01112 whole entry): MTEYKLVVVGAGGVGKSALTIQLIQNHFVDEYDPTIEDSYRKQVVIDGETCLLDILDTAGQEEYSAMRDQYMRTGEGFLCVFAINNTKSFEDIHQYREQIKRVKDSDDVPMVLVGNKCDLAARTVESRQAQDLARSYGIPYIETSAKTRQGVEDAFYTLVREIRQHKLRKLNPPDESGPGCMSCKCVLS
Sequence of GDP-bound KRAS wild-type protein (P01116 whole entry): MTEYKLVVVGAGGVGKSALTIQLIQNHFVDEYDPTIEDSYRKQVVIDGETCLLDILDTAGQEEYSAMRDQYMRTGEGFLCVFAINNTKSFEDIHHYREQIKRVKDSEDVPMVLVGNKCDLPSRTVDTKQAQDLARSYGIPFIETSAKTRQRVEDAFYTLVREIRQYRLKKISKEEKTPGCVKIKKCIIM

Compound	HRAS/KRAS (ratio of KD value for HRAS to KD value for KRAS) ([1]; SPR, KD ratio class)	Kd [2, 5]	IC50 [3]	NRAS/KRAS (ratio of KD value for NRAS to KD value for KRAS) ([4]; SPR, KD ratio class)	Kd ([2]; SPR, Single Cycle Kinetics)	HRAS/KRAS (ratio of KD value for HRAS to KD value for KRAS) ([1]; SPR)	NRAS/KRAS (ratio of KD value for NRAS to KD value for KRAS) ([4]; SPR)	also measured
CCO[C@@H]1C[C@H]2C(=O)NC3(CCC3)C(=O)N(C)[C@@H](C(CC)CC)C(=O)N(C)[C@H](C(=O)N(C)C)CC(=O)N(C)[C@@H](COC)C(=O)N[C@@H]([C@@H](C)CC)C(=O)N(C)CC(=O)N(C)[C@H]3C/C=C\CCN(C3=O)[C@@H](Cc3ccc(C(F)(F)F)cc3)C(=O)N(C)CC(=O)N[C@@H](CCc3ccc(Cl)c(Cl)c3)C(=O)N2C1 [PP1221]	A (a compound having 10 or more and less than 20 is denoted as A)	0.4 nM	40.6 nM	AA (a compound having 20 or more is denoted as AA)				
CCC[C@H]1C(=O)N[C@@H]([C@@H](C)CC)C(=O)N(C2CC2)CC(=O)N(C)[C@H]2C/C=C\CCN(C2=O)[C@@H](CC2CCC(F)(F)CC2)C(=O)N(C)CC(=O)N[C@@H](CCc2ccc(Cl)c(Cl)c2)C(=O)N2C[C@H](OCC)C[C@H]2C(=O)NC2(CC(C)(C)C2)C(=O)N(C)[C@@H](C2CCCC2)C(=O)N(C)[C@H](C(=O)N(C)C)CC(=O)N1C [PP2567]			102 nM					HRAS/KRAS (ratio of KD value with respect to GDP-bound HRAS wild-type protein to KD value with respect to KRAS) [1]: A (a compound having 10 or more and less than 20 is denoted as A); Kd [2, 6]: 1.9 nM; NRAS/KRAS (ratio of KD value with respect to GDP-bound NRAS wild-type protein to KD value with respect to KRAS) [4]: A (a compound having 10 or more and less than 20 is denoted as A)
CCO[C@@H]1C[C@H]2C(=O)NC3(CCC3)C(=O)N(C)[C@@H](C3CCCC3)C(=O)N(C)[C@H](C(=O)N(C)C)CC(=O)N(C)[C@@H](CC)C(=O)N[C@@H]([C@@H](C)CC)C(=O)N(C)CC(=O)N(C)[C@H]3C/C=C\CCN(C3=O)[C@@H](Cc3ccc(C(F)(F)F)cc3)C(=O)N(C)CC(=O)N[C@@H](CCc3cc(F)c(Cl)c(F)c3)C(=O)N2C1 [PP1262]	B (a compound having 3 or more and less than 10 is denoted as B)	0.24 nM	56.7 nM	A (a compound having 10 or more and less than 20 is denoted as A)				
CCC[C@H]1C(=O)N[C@@H]([C@@H](C)CC)C(=O)N(C)CC(=O)N(C)[C@H]2C/C=C\CCN(C2=O)[C@@H](Cc2ccc(C(F)(F)F)cc2)C(=O)N(C)CC(=O)N[C@@H](CCc2ccc3sccc3c2)C(=O)N2C[C@H](OCC)C[C@H]2C(=O)NC2(CCC2)C(=O)N(C)[C@@H](C2CCCC2)C(=O)N(C)[C@H](C(=O)N(C)C)CC(=O)N1C [PP1256]	A (a compound having 10 or more and less than 20 is denoted as A)	0.36 nM	69 nM	A (a compound having 10 or more and less than 20 is denoted as A)				
CCCN1C(=O)CN(CC)C(=O)CN(C)C(=O)[C@H]([C@@H](C)CC)NC(=O)[C@H](CC(C)C)N(C)C(=O)C[C@@H](C(=O)N2CCOCC2)N(C)C(=O)[C@H](C2CCCC2)N(C)C(=O)C2(CCC2)NC(=O)[C@@H]2CCCN2C(=O)[C@H](CCc2ccc(C(F)(F)F)c(Cl)c2)NC(=O)CN(C)C(=O)[C@@H]1Cc1ccc(C(F)(F)F)cc1 [PP1948] ([NMeL]I[Sar][NEtG][NPrPhe(4-CF3)][Sar][hPhe(3-Cl-4-CF3)]P[Ac4c][NMeGly(cPent)][NMeD]-Morpholide; lactam N-11)					0.41 nM			HRAS/KRAS (KD ratio) ([1]; ratio of KD for GDP-bound HRAS wild-type protein to KD for KRAS, SPR): C (A compound having a KD ratio of 0.1 or more and less than 3 is denoted as C); IC50 ([3]; read-out: NCI-H441 IC50, NCI-H441 cell proliferation, 4 days, CellTiter-Glo): 16.2 nM; NRAS/KRAS (KD ratio) ([4]; ratio of KD for GDP-bound NRAS wild-type protein to KD for KRAS, SPR): C (A compound having a KD ratio of 0.1 or more and less than 3 is denoted as C)
CCC[C@H]1C(=O)N[C@@H]([C@@H](C)CC)C(=O)N(C)CC(=O)N(C)[C@H]2C/C=C\CCN(C2=O)[C@@H](Cc2ccc(C(F)(F)F)cc2)C(=O)N(C)CC(=O)N[C@@H](CCc2cc(F)c(C(F)(F)F)c(F)c2)C(=O)N2C[C@H](OCC)C[C@H]2C(=O)NC2(CCC2)C(=O)N(C)[C@@H](C2CCCC2)C(=O)N(C)[C@H](C(=O)N2CCCCC2)CC(=O)N1C [PP1294]	A (a compound having 10 or more and less than 20 is denoted as A)	0.29 nM	10 nM	A (a compound having 10 or more and less than 20 is denoted as A)				
CCO[C@@H]1C[C@H]2C(=O)NC3(CCC3)C(=O)N(C)[C@@H](C3CCCC3)C(=O)N(C)[C@H](C(=O)N3CCCC3)CC(=O)N(C)[C@@H](CC3CCC3)C(=O)N[C@@H]([C@@H](C)CC)C(=O)N(C)CC(=O)N(C)[C@H]3C/C=C\CCN(C3=O)[C@@H](Cc3ccc(C)cc3)C(=O)N(C)CC(=O)N[C@@H](CCc3cc(F)c(C(F)(F)F)c(F)c3)C(=O)N2C1 [PP1425]	B (a compound having 3 or more and less than 10 is denoted as B)	0.24 nM	20.2 nM	A (a compound having 10 or more and less than 20 is denoted as A)				
CCOC[C@H]1C(=O)N[C@@H]([C@@H](C)CC)C(=O)N(C)CC(=O)N(C)[C@H]2C/C=C\CCN(C2=O)[C@@H](CC2CCCCC2)C(=O)N(C)CC(=O)N[C@@H](CCc2ccc(C(F)(F)F)c(Cl)c2)C(=O)N2C[C@H](OCC)C[C@H]2C(=O)NC2(CC(C)(C)C2)C(=O)N(C)[C@@H](C(CC)CC)C(=O)N(C)[C@H](C(=O)N(C)C)CC(=O)N1C [PP2488]			171 nM		1.6 nM	A (a compound having 10 or more and less than 20 is denoted as A)	A (a compound having 10 or more and less than 20 is denoted as A)	
CCO[C@@H]1C[C@H]2C(=O)NC3(CCC3)C(=O)N(C)[C@@H](C3CCCC3)C(=O)N(C)[C@H](C(=O)N(C)C)CC(=O)N(C)[C@@H](CC)C(=O)N[C@@H]([C@@H](C)CC)C(=O)N(C)CC(=O)N(C)[C@H]3C/C=C\CCN(C3=O)[C@@H](Cc3ccc(C(F)(F)F)cc3)C(=O)N(C)CC(=O)N[C@@H](CCc3ccc4sccc4c3)C(=O)N2C1 [PP1255]	A (a compound having 10 or more and less than 20 is denoted as A)	0.39 nM	156 nM	A (a compound having 10 or more and less than 20 is denoted as A)				
CCOC[C@H]1C(=O)N[C@@H]([C@@H](C)CC)C(=O)N(C)CC(=O)N(C)[C@H]2C/C=C\CCN(C2=O)[C@@H](Cc2ccc(C)cc2)C(=O)N(C)CC(=O)N[C@@H](CCc2cc(F)c(C(F)(F)F)c(F)c2)C(=O)N2C[C@@H](C)C[C@H]2C(=O)NC2(CC(C)(C)C2)C(=O)N(C)[C@@H](C2CCCC2)C(=O)N(C)[C@H](C(=O)N(CC)CC)CC(=O)N1C [PP2407]			60.1 nM		0.5 nM	A (a compound having 10 or more and less than 20 is denoted as A)	A (a compound having 10 or more and less than 20 is denoted as A)	
CCOC[C@H]1C(=O)N[C@@H]([C@@H](C)OCC)C(=O)N(C)CC(=O)N(C)[C@H]2C/C=C\CCN(C2=O)[C@@H](Cc2ccc(C)cc2)C(=O)N(C)CC(=O)N[C@@H](CCc2cc(F)c(C(F)(F)F)c(F)c2)C(=O)N2C[C@@H](C)C[C@H]2C(=O)NC2(CC(C)(C)C2)C(=O)N(C)[C@@H](C2CCCC2)C(=O)N(C)[C@H](C(=O)N(C)CC)CC(=O)N1C [PP2422]			117 nM		0.46 nM	A (a compound having 10 or more and less than 20 is denoted as A)	A (a compound having 10 or more and less than 20 is denoted as A)	
CCO[C@@H]1C[C@H]2C(=O)NC3(CC(C)(C)C3)C(=O)N(C)[C@@H](CC(C)(C)C)C(=O)N(C)[C@H](C(=O)N(C)C)CC(=O)N(C)[C@@H](COC)C(=O)N[C@@H]([C@@H](C)CC)C(=O)N(C3CC3)CC(=O)N(C)[C@H]3C/C=C\CCN(C3=O)[C@@H](Cc3ccc(C(F)(F)F)cc3)C(=O)N(C)CC(=O)N[C@@H](CCc3cc(F)c(C(F)(F)F)c(F)c3)C(=O)N2C1 [PP2744]			10.7 nM					HRAS/KRAS (ratio of KD value with respect to GDP-bound HRAS wild-type protein to KD value with respect to KRAS) [1]: A (a compound having 10 or more and less than 20 is denoted as A); Kd [2, 6]: 0.23 nM; NRAS/KRAS (ratio of KD value with respect to GDP-bound NRAS wild-type protein to KD value with respect to KRAS) [4]: A (a compound having 10 or more and less than 20 is denoted as A)
CCO[C@@H]1C[C@H]2C(=O)NC3(CCC3)C(=O)N(C)[C@@H](C3CCCC3)C(=O)N(C)[C@H](C(=O)N(C)C)CC(=O)N(C)[C@@H](C)C(=O)N[C@@H]([C@@H](C)CC)C(=O)N(C)CC(=O)N(C)[C@H]3CCCCCN(C3=O)[C@@H](Cc3ccc(F)cc3)C(=O)N(C)CC(=O)N[C@@H](CCc3cc(F)c(C(F)(F)F)c(F)c3)C(=O)N2C1 [PP1189]			16.1 nM		0.066 nM	B (a compound having 3 or more and less than 10 is denoted as B)	B (a compound having 3 or more and less than 10 is denoted as B)	
